Results from patent US20090029992A1, “SUBSTITUTED PYRAZOLE COMPOUNDS” (priority 2007, published 2009).
pIC50: −log10 of the molar value.

Tests used:
Type in all cases: biochemical
[1] = target: T1, N-terminal GST-tagged recombinant human Flt3, residues 564-end (Homo sapiens, UniProt P36888); assay: Flt3 kinase inhibition assay (33P-ATP filter assay); conditions: 40 minutes at room temperature
T1 construct: recombinant human Flt3, residues 564-end; GST (N); purchased Upstate USA Inc, 706 Forest Street, Charlottesville, Va
T1 sequence (P36888 564-993 limits assumed): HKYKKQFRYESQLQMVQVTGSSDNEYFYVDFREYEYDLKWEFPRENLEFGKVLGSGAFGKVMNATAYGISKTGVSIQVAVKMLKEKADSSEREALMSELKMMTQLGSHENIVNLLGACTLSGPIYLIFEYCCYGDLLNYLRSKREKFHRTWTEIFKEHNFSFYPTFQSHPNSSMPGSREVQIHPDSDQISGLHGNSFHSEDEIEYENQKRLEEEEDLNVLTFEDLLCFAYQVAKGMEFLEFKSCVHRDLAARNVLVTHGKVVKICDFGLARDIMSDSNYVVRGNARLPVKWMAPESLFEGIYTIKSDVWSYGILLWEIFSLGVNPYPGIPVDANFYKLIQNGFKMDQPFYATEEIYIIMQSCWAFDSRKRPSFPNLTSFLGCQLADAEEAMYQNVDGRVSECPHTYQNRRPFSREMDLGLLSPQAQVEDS
Outline: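 Serial compound dilutions incubated 40 min at room temperature with 5-10 mU Flt3 kinase, 50 μM peptide substrate and [γ-33P]ATP/10 mM magnesium acetate, pH 7.0. Phosphoric acid stop, filter capture and scintillation counting; activity compared with uninhibited reactions.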

recombinant Aurora A = target: T2, recombinant Aurora A (Homo sapiens, UniProt O14965); assay: Aurora A (Aurora 2) inhibition assay, Z'-Lyte kinase assay; conditions: ATP 10 μM, 1 h
T2 construct: purchased Upstate, Lake Placid, N.Y
T2 sequence (O14965 1-403): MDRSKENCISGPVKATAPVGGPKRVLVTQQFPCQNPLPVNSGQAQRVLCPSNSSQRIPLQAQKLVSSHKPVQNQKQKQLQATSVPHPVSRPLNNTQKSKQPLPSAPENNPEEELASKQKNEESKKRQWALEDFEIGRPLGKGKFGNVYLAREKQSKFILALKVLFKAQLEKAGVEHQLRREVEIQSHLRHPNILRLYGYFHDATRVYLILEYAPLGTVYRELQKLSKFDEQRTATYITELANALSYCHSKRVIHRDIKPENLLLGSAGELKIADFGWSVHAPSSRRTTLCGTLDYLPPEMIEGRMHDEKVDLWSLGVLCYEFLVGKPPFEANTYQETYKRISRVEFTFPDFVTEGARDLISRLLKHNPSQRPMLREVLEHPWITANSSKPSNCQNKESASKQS
Outline: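 Z'-Lyte FRET assay: Aurora A (200-500 ng/mL final), Ser/Thr 1 peptide (2 μM) and ATP (10 μM) in 50 mM HEPES pH 7.5, 10 mM MgCl2, 5 mM EGTA, 0.05% Brij-35, 2 mM DTT, 1 h at room temperature. Coumarin/fluorescein emission ratio converted to percent phosphorylation; dose-response curves plotted.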

[2] = target: T3, N-terminal His6-tagged recombinant human KDR, residues 790-end (Homo sapiens, UniProt P35968); assay: KDR kinase inhibition assay (33P-ATP filter assay)
T3 construct: recombinant human KDR, residues 790-end; His6 (N); purchased Upstate USA Inc, 706 Forest Street, Charlottesville, Va
Outline: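 His6-tagged human KDR (residues 790-end, 5-10 mU) with 0.33 mg/mL myelin basic protein in 8 mM MOPS pH 7.0, 0.2 mM EDTA, 10 mM magnesium acetate and [γ-33P]ATP; 40 min at room temperature. Stopped with phosphoric acid, filter-bound 33P counted; inhibition relative to no-inhibitor controls.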

[3] = group with IC50 greater than 100 nM

T3 sequence (P35968 790-1356 limits assumed): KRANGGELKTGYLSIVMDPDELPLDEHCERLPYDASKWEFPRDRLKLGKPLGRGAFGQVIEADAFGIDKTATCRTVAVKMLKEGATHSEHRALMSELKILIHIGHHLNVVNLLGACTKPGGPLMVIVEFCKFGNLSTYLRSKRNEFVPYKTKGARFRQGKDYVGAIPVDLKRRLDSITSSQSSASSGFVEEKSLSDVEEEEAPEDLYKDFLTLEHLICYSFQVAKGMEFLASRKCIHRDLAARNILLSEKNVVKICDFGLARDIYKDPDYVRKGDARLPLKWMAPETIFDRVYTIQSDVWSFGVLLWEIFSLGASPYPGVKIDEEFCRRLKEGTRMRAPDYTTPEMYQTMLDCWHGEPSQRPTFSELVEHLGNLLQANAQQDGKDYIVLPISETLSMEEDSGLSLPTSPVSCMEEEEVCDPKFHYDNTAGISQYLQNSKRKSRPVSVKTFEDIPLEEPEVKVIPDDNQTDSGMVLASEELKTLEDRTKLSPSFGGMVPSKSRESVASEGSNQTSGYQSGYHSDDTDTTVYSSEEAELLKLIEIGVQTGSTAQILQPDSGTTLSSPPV

SMILES	pIC50 [1]	pIC50 (recombinant Aurora A; [3])	pIC50 [2, 3]	pIC50 (recombinant Aurora A)	pIC50 ([2]; 40 minutes at room temperature)
Cc1cc(Nc2cc(NC3CCOCC3)nc(-c3ccc(Cl)cc3)n2)n[nH]1 [Compound 22, 2-(4-chlorophenyl)-N^4-(5-methyl-1H-pyrazol-3-yl)-N^6-(tetrahydro-2H-pyran-4-yl)pyrimidine-4,6-diamine]	≥ 7.00	≥ 6.00	≥ 6.00		
COc1cccc(-c2nc(Nc3cc(C)[nH]n3)cc(NC3CCOCC3)n2)c1 [Compound 29, 2-(3-methoxyphenyl)-N^4-(5-methyl-1H-pyrazol-3-yl)-N^6-(tetrahydro-2H-pyran-4-yl)pyrimidine-4,6-diamine]	≥ 7.00			≥ 7.00	≥ 7.00
Cc1cc(Nc2cc(N3CCN(C)CC3)nc(-c3ccc(F)cc3)n2)n[nH]1 [Compound 32, 2-(4-fluorophenyl)-N-(5-methyl-1H-pyrazol-3-yl)-6-(4-methylpiperazin-1-yl)pyrimidin-4-amine]	≥ 7.00		≥ 6.00	≥ 7.00	
Cc1cc(Nc2cc(N3CCN(C)CC3)nc(-c3cccc(F)c3)n2)n[nH]1 [Compound 33, 2-(3-fluorophenyl)-N-(5-methyl-1H-pyrazol-3-yl)-6-(4-methylpiperazin-1-yl)pyrimidin-4-amine]	≥ 7.00			≥ 7.00	≥ 7.00
Cc1cc(Nc2cc(N3CCN(C)CC3)nc(-c3ccc(Cl)cc3)n2)n[nH]1 [Compound 35, 2-(4-chlorophenyl)-N-(5-methyl-1H-pyrazol-3-yl)-6-(4-methylpiperazin-1-yl)pyrimidin-4-amine]	≥ 7.00			≥ 7.00	≥ 7.00
Cc1cc(Nc2cc(N3CCN(C)CC3)nc(-c3cccc(Cl)c3)n2)n[nH]1 [Compound 36, 2-(3-chlorophenyl)-N-(5-methyl-1H-pyrazol-3-yl)-6-(4-methylpiperazin-1-yl)pyrimidin-4-amine]	≥ 7.00			≥ 7.00	≥ 7.00
Cc1cc(Nc2cc(N3CCN(C)CC3)nc(-c3ccccc3Cl)n2)n[nH]1 [Compound 37, 2-(2-chlorophenyl)-N-(5-methyl-1H-pyrazol-3-yl)-6-(4-methylpiperazin-1-yl)pyrimidin-4-amine]	≥ 7.00	≥ 6.00			≥ 7.00
Cc1ccc(-c2nc(Nc3cc(C)[nH]n3)cc(N3CCN(C)CC3)n2)cc1 [Compound 38, N-(5-methyl-1H-pyrazol-3-yl)-6-(4-methylpiperazin-1-yl)-2-p-tolylpyrimidin-4-amine]	≥ 7.00			≥ 7.00	≥ 7.00
Cc1cccc(-c2nc(Nc3cc(C)[nH]n3)cc(N3CCN(C)CC3)n2)c1 [Compound 39, N-(5-methyl-1H-pyrazol-3-yl)-6-(4-methylpiperazin-1-yl)-2-m-tolylpyrimidin-4-amine]	≥ 7.00			≥ 7.00	≥ 7.00
Cc1cc(Nc2cc(N3CCN(C)CC3)nc(-c3ccccc3C)n2)n[nH]1 [Compound 40, N-(5-methyl-1H-pyrazol-3-yl)-6-(4-methylpiperazin-1-yl)-2-o-tolylpyrimidin-4-amine]	≥ 7.00	≥ 6.00			≥ 7.00
COc1ccc(-c2nc(Nc3cc(C)[nH]n3)cc(N3CCN(C)CC3)n2)cc1 [Compound 41, 2-(4-methoxyphenyl)-N-(5-methyl-1H-pyrazol-3-yl)-6-(4-methylpiperazin-1-yl)pyrimidin-4-amine]	≥ 7.00			≥ 7.00	≥ 7.00
COc1cccc(-c2nc(Nc3cc(C)[nH]n3)cc(N3CCN(C)CC3)n2)c1 [Compound 42, 2-(3-methoxyphenyl)-N-(5-methyl-1H-pyrazol-3-yl)-6-(4-methylpiperazin-1-yl)pyrimidin-4-amine]	≥ 7.00			≥ 7.00	≥ 7.00
Cc1cc(Nc2cc(N(C)CCN(C)C)nc(-c3cccc(Cl)c3)n2)n[nH]1 [Compound 49, 2-(3-chlorophenyl)-N^4-(2-(dimethylamino)ethyl)-N^4-methyl-N^6-(5-methyl-1H-pyrazol-3-yl)pyrimidine-4,6-diamine]	≥ 7.00	≥ 6.00			≥ 7.00
Cc1cccc(-c2nc(Nc3cc(C)[nH]n3)cc(N(C)CCN(C)C)n2)c1 [Compound 52, N^4-(2-(dimethylamino)ethyl)-N^4-methyl-N^6-(5-methyl-1H-pyrazol-3-yl)-2-m-tolylpyrimidine-4,6-diamine]	≥ 7.00	≥ 6.00	≥ 6.00		
COc1ccc(-c2nc(Nc3cc(C)[nH]n3)cc(N(C)CCN(C)C)n2)cc1 [Compound 54, N^4-(2-(dimethylamino)ethyl)-2-(4-methoxyphenyl)-N^4-methyl-N^6-(5-methyl-1H-pyrazol-3-yl)pyrimidine-4,6-diamine]	≥ 7.00	≥ 6.00	≥ 6.00		
COCCN(C)c1cc(Nc2cc(C)[nH]n2)nc(-c2cccc(Cl)c2)n1 [Compound 62, 2-(3-chlorophenyl)-N^4-(2-methoxyethyl)-N^4-methyl-N^6-(5-methyl-1H-pyrazol-3-yl)pyrimidine-4,6-diamine]	≥ 7.00	≥ 6.00	≥ 6.00		
Cc1cc(Nc2cc(NC3CCOCC3)nc(-c3cccc(N(C)C)c3)n2)n[nH]1 [Compound 74, 2-(3-(dimethylamino)phenyl)-N^4-(5-methyl-1H-pyrazol-3-yl)-N^6-(tetrahydro-2H-pyran-4-yl)pyrimidine-4,6-diamine]	≥ 7.00			≥ 7.00	≥ 7.00
Cc1cc(Nc2cc(N3CCN(C)CC3)nc(-c3ccc(C(C)(C)C)cc3)n2)n[nH]1 [Compound 82, 2-(4-tert-butylphenyl)-N-(5-methyl-1H-pyrazol-3-yl)-6-(4-methylpiperazin-1-yl)pyrimidin-4-amine]	≥ 7.00		≥ 6.00	≥ 7.00	
Cc1cc(Nc2cc(N3CCN(C)CC3)nc(-c3ccc(N(C)C)cc3)n2)n[nH]1 [Compound 85, 2-(4-(dimethylamino)prenyl)-N-(b-methyl-1H-pyrazol-3-yl)-6-(4-methylpiperazin-1-yl)pyrimidin-4-amine]	≥ 7.00			≥ 7.00	≥ 7.00
Cc1cc(Nc2cc(N3CCN(C)CC3)nc(-c3cccnc3)n2)n[nH]1 [Compound 89, N-(5-methyl-1H-pyrazol-3-yl)-6-(4-methylpiperazin-1-yl)-2-(pyridin-3-yl)pyrimidin-4-amine]	≥ 7.00		≥ 6.00	≥ 7.00	
Cc1cc(Nc2cc(N3CCN(C)CC3)nc(-c3cccc(C(F)(F)F)c3)n2)n[nH]1 [Compound 101, N-(5-methyl-1H-pyrazol-3-yl)-6-(4-methylpiperazin-1-yl)-2-(3-(trifluoromethyl)phenyl)pyrimidin-4-amine]	≥ 7.00		≥ 6.00	≥ 7.00	
COCCN(C)c1cc(Nc2cc(C)[nH]n2)nc(-c2cccc(N(C)C)c2)n1 [Compound 119, 2-(3-(dimethylamino)phenyl)-N^4-(2-methoxyethyl)-N^4-methyl-N^6-(5-methyl-1H-pyrazol-3-yl)pyrimidine-4,6-diamine]	≥ 7.00		≥ 6.00	≥ 7.00	
Cc1cc(Nc2cc(NC3CCOCC3)nc(-c3ccc4c(c3)OCCO4)n2)n[nH]1 [Example 130, 2-(2,3-dihydrobenzo[b][1,4]dioxin-6-yl)-N^4-(5-methyl-1H-pyrazol-3-yl)-N^6-(tetrahydro-2H-pyran-4-yl)pyrimidine-4,6-diamine]	≥ 7.00		≥ 6.00	≥ 7.00	
Cc1cc(Nc2cc(NC3CCOCC3)nc(-c3ccc4c(c3)OCO4)n2)n[nH]1 [Example 132, 2-(benzo[d][1,3]dioxol-5-yl)-N^4-(5-methyl-1H-pyrazol-3-yl)-N^6-(tetrahydro-2H-pyran-4-yl)pyrimidine-4,6-diamine]	≥ 7.00			≥ 7.00	≥ 7.00
